Assay results reported in US20250213560A1, “NITROGEN-CONTAINING HETEROCYCLIC COMPOUNDS HAVING PHENYL GROUP AND USES THEREOF” (BNH RESEARCH CO., LTD., priority 2022, published 2025).

Key:
[1] = tested on: APP/PS1 mice; test: Barrel cortex TC potency and GABA/AMPA ratio in Alzheimer's model mice; assay type: in vivo, mouse
Experimental: All electrophysiological experiments were conducted at 27 to 29° C. For electrophysiological experiments, electrodes with […] resistance were used and stimuli were applied to the ventral posteromedial nucleus (VPM) using a concentric bipolar electrode (FHC, Bowdoin, ME). The somatosensory cortex was identified by the presence of barrels under 4×magnification and differential interference contrast (DIC) optics, and by the ability to evoke short and constant latency field excitatory postsynaptic potentials (fEPSPs) by VPM stimulation. […]
For the minimal stimulation protocol (Potency), VB thalamic stimulation intensity was adjusted to find the lowest intensity that elicited a mixture of synaptic responses and failures. Failure rate was calculated as the number of failures/total number of trials. Potency was calculated as the mean EPSC peak amplitude excluding failures (see Chittajallu & Isaac, 2010, Emergence of cortical inhibition by coordinated sensory-driven plasticity at distinct synaptic loci, DOI: 10.1038/nn.2639; see Isaac et al., 1997, Silent Synapses during Development of Thalamocortical Inputs, https://doi.org/10.1016/S08966273 (00) 80267-6; and see Stevens & Wang, 1995, Facilitation and depression at single central synapses, DOI: 10.1016/08966273 (95) 90223-6). […]

[2] = tested on: GluN2B; test: GluN2B expression in SH-SY5Y cells; assay type: cell-based, human; conditions: 1 μM, application for 6 and 24 hours
Experimental: Human undifferentiated neuroblastoma cell line SH-SY5Y and human embryonic kidney cell line (HEK)-293T were purchased from Korean Cell Line Bank (Korea) and Takara (Japan), respectively. Cells were grown in HyClone Minimal Essential Medium (MEM) and Dulbecco's Modified Eagle Medium (DMEM), respectively, supplemented with 10% (v/v) fetal bovine serum (FBS), penicillin (100 U/mL), and streptomycin ([…]). Cells were maintained in a humidified atmosphere of 95% air and 5% CO2 at 37° C. Cells were passaged 10 times at maximum. Cells were dissociated using 0.05% trypsin-EDTA solution and the cells were seeded in new culture dishes for maintenance.
RT-PCR was used to measure the amount of BDNF and GluN2B in response to compounds of the present disclosure. 293T cells were dissociated using 0.05% Trypsin-EDTA solution and seeded in 24 well or 6 well dishes for RNA work. After incubation at 37° C. in a humidified atmosphere with 5% CO2 for 24 hours, the culture medium was replaced by a medium containing a series of concentrations of tested compounds diluted with the DMEM without FBS. Time course experiments were performed. The same volume of DMSO was used for negative control.
Similarly, BnH12003 (1 μM) augmented BDNF and GluN2B expression by application for 6 and 24 hours in SH-SY5Y cells (FIGS. 11A and 11B).

[3] = tested on: HDAC 1 to 9, and 11; test: HDAC catalytic activity assay (fluorogenic substrate, 10-dose IC50); assay type: biochemical; conditions: 3-fold serial dilution starting at 100 μM, duplicates
Experimental: The compound was resuspended in 100 mM DMSO and tested in a 10-dose IC50 with 3-fold serial dilution starting at 100 μM against HDACs 1-9, and 11. As reference compounds, Trichostatin A (TSA) and TMP269 were tested in a 10-dose IC50 with 3-fold serial dilution starting at 10 μM or 1 μM.
10 μM Fluorogenic peptide from p53 residues 379-382 (RHKK (Ac) AMC) was used for the substrate for HDAC 1, 2, 3, and 6. 50 μM Fluorogenic HDAC Class2a Substrate (Trifluoroacetyl Lysine) was used for the substrate for HDAC 4, 5, 7, 9, and 11. 100 μM Fluorogenic peptide from p53 residues 379-382 (RHK (Ac) K (Ac) AMC) was used for the substrate for HDAC8.
IC50 values were calculated using the GraphPad Prism 4 program based on a sigmoidal dose-response equation and the blank (DMSO) value concentration was entered as 1.00E-12 M for curve fitting.
The experiments were performed in duplicates.

## C[C@H]1CC[C@@H](C(=O)O)CN1C(=O)Cc1ccc(-c2cncnc2)cc1 [BnH12003, (3R,6S)-6-methyl-1-(2-(4-(pyrimidin-5-yl)phenyl)acetyl) piperidine-3-carboxylic acid]
[1]; barrel cortex layer 4, Os pump 3 μM
  GABA/AMPA ratio (balance of excitation/inhibition): maintaining the balance of excitation/inhibition
[1]; barrel cortex layer 4, Os pump, BnH12003 3 μM, solanezumab 200 μg
  excitatory TC synaptic potential (TC potency): increased the excitatory TC synaptic potential
[2]
  GluN2B expression: augmented
[3]
  inhibitory effect on HDAC catalytic activities (10-dose IC50): did not show any inhibitory effect
